Data as given in patent publication US9181234B2, “Antibacterial compounds” (priority 2010, dated 2015).
Converted amounts (≈) assume the structure as drawn.

Columns and labels:
physchem = conditions: kinetic from dmso stock
Description: Turbimetric Assay: Determination of Solubility
The solubility of the compounds was measured using a turbidimetric method. A series of doubling dilutions of compounds were prepared in neat dimethyl sulfoxide (DMSO). 5 μl samples were diluted twenty-fold into 95 μl volumes of 100 mM citrate buffer (pH 4), phosphate buffered saline (PBS, pH 7.4) or carbonate-bicarbonate buffer (pH 9) in microtitre assay plates and allowed to reach equilibrium at room temperature for 24 hours. The absorbance within each well of the plate was read spectrophotometrically at a wavelength of 620 nm. A precipitate forms when the maximum aqueous solubility level is reached. The value quoted is the highest concentration where the compound was in solution i.e. where no measurable precipitate was present. […] ND=not determined

[1] = test system: Staphylococcus aureus (Isolate ID ATCC 29213); assay: Antibacterial activity, MIC, S. aureus; format: cell-based; conditions: Staphylococcus aureus, ATCC29213, Gram positive strain; broth microdilution or agar dilution
Description: (§1) Bacterial Assay: Determination of Antibacterial Activity
(§2) Compounds of the invention were tested for antimicrobial activity by susceptibility testing in liquid or on solid media. MICs for compounds against each strain were determined by the broth microdilution or agar dilution method according to the guidelines of the Clinical Laboratories and Standards Institute, formerly the National Committee for Clinical Laboratory Standards (Clinical Laboratories and Standards Institute. Methods for Dilution Antimicrobial Susceptibility Tests for Bacteria That Grow Aerobically; Approved Standard—Seventh Edition. Document M7-A7. CLSI, Wayne, Pa., 2006; Clinical Laboratories and Standards Institute. The gram positive bacterial strains tested include S. aureus (Staphylococcus aureus (Isolate ID ATCC 29213)), E. faecalis (Enterococcus faecalis (Isolate ID ATCC 29212)) and S. pyogenes (Streptococcus pyogenes (Isolate ID ATCC 51339)). The gram negative bacterial strains tested include H. influenzae (Haemophilus influenzae (Isolate ID ATCC 49247))

[2] = test system: Streptococcus pyogenes (Isolate ID ATCC 51339); assay: Antibacterial activity, MIC, S. pyogenes; format: cell-based; conditions: Streptococcus pyogenes, ATCC51339, Gram positive strain; broth microdilution or agar dilution
Description: as §1, §2

[3] = test system: Haemophilus influenzae (Isolate ID ATCC 49247); assay: Antibacterial activity, MIC, H. influenzae; format: cell-based; conditions: Haemophilus influenzae, ATCC49247; Gram negative strain; broth microdilution or agar dilution
Description: as §1, §2

[4] = pH 7.4, aqueous buffer, Max Solubility
[5] = pH 7.4, aqueous buffer, Solubility (pH 7.4)
[6] = pH 7.4, aqueous buffer, Solubility Range
[7] = pH 7.4, aqueous buffer, Solubility Range (maximum solubility)
[8] = pH 9, aqueous buffer, Max Solubility
[9] = pH 9, aqueous buffer, Solubility Range (maximum solubility)

SMILES	solubility at 24 h (physchem; [4]) [µg/mL]	solubility at 24 h (physchem; [5]) [µg/mL]	solubility at 24 h (physchem; [6]) [µg/mL]	solubility at 24 h (physchem; [7]) [µg/mL]	MIC [1] [µg/mL]	MIC [2] [µg/mL]	MIC [3] [µg/mL]	solubility at 24 h (physchem; [8]) [µg/mL]	solubility at 24 h (physchem; [9]) [µg/mL]
CCNC(=O)Nc1nc2cc(-c3cnc(C(=O)N4CCC(C)(C(=O)O)CC4)nc3)cc(-c3ccccn3)c2s1 [Compound 192]	≥ 800	≥ 800	> 800	> 800	1 to 16 (≈ 1.83 to 29.3 µM)	1 to 16 (≈ 1.83 to 29.3 µM)	1 to 16 (≈ 1.83 to 29.3 µM)		
CCNC(=O)Nc1nc2cc(-c3cnc(N4CCC(CC)(C(=O)O)CC4)nc3)cc(C(N)=O)c2s1 [Compound 193, 1-[5-[7-carbamoyl-2-(ethylcarbamoylamino)-1,3-benzothiazol-5-yl]pyrimidin-2-yl]-4-ethyl-piperidine-4-carboxylic acid]	≥ 800	≥ 800	> 800	> 800	1 to 16 (≈ 2.01 to 32.2 µM)	1 to 16 (≈ 2.01 to 32.2 µM)	1 to 16 (≈ 2.01 to 32.2 µM)		
CCNC(=O)Nc1nc2cc(-c3cnc(N4CCC(C)(C(=O)O)CC4)nc3)cc(COCCOC)c2s1 [Compound 194]	≥ 800	≥ 800	> 800	> 800	1 to 16 (≈ 1.89 to 30.3 µM)	1 to 16 (≈ 1.89 to 30.3 µM)	1 to 16 (≈ 1.89 to 30.3 µM)		
CCNC(=O)Nc1nc2cc(-c3cnnc(N4CCC(C)(C(=O)O)CC4)c3)cc(-c3ccccn3)c2s1 [Compound 195, 1-[5-[2-(ethylcarbamoylamino)-7-(2-pyridyl)-1,3-benzothiazol-5-yl]pyridazin-3-yl]-4-methyl-piperidine-4-carboxylic acid]	≥ 800	≥ 800	> 800	> 800	1 to 16 (≈ 1.93 to 30.9 µM)	≤ 0.25	1 to 16 (≈ 1.93 to 30.9 µM)		
CCNC(=O)Nc1nc2cc(-c3cnc(NC4COC(C)(C(=O)O)OC4)nc3)cc(-c3ccccn3)c2s1 (centres unmarked) [Compound 196]		50 (≈ 93.4 µM)	12.5 to 400 (≈ 23.3 to 747 µM)		1 to 16 (≈ 1.87 to 29.9 µM)	1 to 16 (≈ 1.87 to 29.9 µM)	1 to 16 (≈ 1.87 to 29.9 µM)	100 (≈ 187 µM)	12.5 to 400 (≈ 23.3 to 747 µM)
CCNC(=O)Nc1nc2cc(-c3cnc(N4CCC(CC)(C(=O)O)CC4)nc3)cc(C3=NOCC3)c2s1 [Compound 197, 1-[5-[7-(4,5-dihydroisoxazol-3-yl)-2-(ethylcarbamoylamino)-1,3-benzothiazol-5-yl]pyrimidin-2-yl]-4-ethyl-piperidine-4-carboxylic acid]	≥ 800	≥ 800	> 800	> 800	1 to 16 (≈ 1.91 to 30.6 µM)	0.25 to 1 (≈ 0.477 to 1.91 µM)	1 to 16 (≈ 1.91 to 30.6 µM)		
CCNC(=O)Nc1nc2cc(-c3cnc(N4CCC(C)(C(=O)O)CC4)nc3)c(OC)cc2s1 [Compound 198, 1-[5-[2-(Ethylcarbamoylamino)-6-methoxy-1,3-benzothiazol-5-yl]pyrimidin-2-yl]-4-methyl-piperidine-4-carboxylic acid]	≥ 800	≥ 800	> 800	> 800	1 to 16 (≈ 2.13 to 34 µM)	1 to 16 (≈ 2.13 to 34 µM)	1 to 16 (≈ 2.13 to 34 µM)		
CCNC(=O)Nc1nc2cc(-c3cnc(N4CCC(CC)(C(=O)O)CC4)nc3)cc(C=O)c2s1 [Compound 199, 4-ethyl-1-[5-[2-(ethylcarbamoylamino)-7-formyl-1,3-benzothiazol-5-yl]pyrimidin-2-yl]piperidine-4-carboxylic acid]	≥ 800	≥ 800	> 800	> 800	1 to 16 (≈ 2.07 to 33.2 µM)	0.25 to 1 (≈ 0.518 to 2.07 µM)	1 to 16 (≈ 2.07 to 33.2 µM)		
CCNC(=O)Nc1nc2cc(-c3cnc(N4CCC(C)(C(=O)O)CC4)nc3)cc(OC)c2s1 [Compound 200, 1-[5-[2-(Ethylcarbamoylamino)-7-methoxy-1,3-benzothiazol-5-yl]pyrimidin-2-yl]-4-methyl-piperidine-4-carboxylic acid]	≥ 800	≥ 800	> 800	> 800	1 to 16 (≈ 2.13 to 34 µM)	1 to 16 (≈ 2.13 to 34 µM)	1 to 16 (≈ 2.13 to 34 µM)		
CCNC(=O)Nc1nc2cc(-c3cnc(N4CCC(C)(C(=O)O)C4)nc3)cc(-c3ccccn3)c2s1 (centres unmarked) [Compound 201]	≥ 800	≥ 800	> 800	> 800	1 to 16 (≈ 1.99 to 31.8 µM)	0.25 to 1 (≈ 0.496 to 1.99 µM)	1 to 16 (≈ 1.99 to 31.8 µM)		
CCNC(=O)Nc1nc2cc(-c3cnc(N4CCC(C)(C(=O)O)CC4)nc3)cc(COC)c2s1 [Compound 202, 1-[5-[2-(Ethylcarbamoylamino)-7-(methoxymethyl)-1,3-benzothiazol-5-yl]pyrimidin-2-yl]-4-methyl-piperidine-4-carboxylic acid]	≥ 800	≥ 800	> 800	> 800	1 to 16 (≈ 2.06 to 33 µM)	1 to 16 (≈ 2.06 to 33 µM)	0.25 to 1 (≈ 0.516 to 2.06 µM)		
CCNC(=O)Nc1nc2cc(-c3cnc(N4CCC(CC)(C(=O)O)CC4)nc3)cc(COC)c2s1 [Compound 203, 4-Ethyl-1-[5-[2-(ethylcarbamoylamino)-7-(methoxymethyl)-1,3-benzothiazol-5-yl]pyrimidin-2-yl]piperidine-4-carboxylic acid]		100 (≈ 201 µM)	12.5 to 400 (≈ 25.1 to 802 µM)		1 to 16 (≈ 2.01 to 32.1 µM)	1 to 16 (≈ 2.01 to 32.1 µM)	1 to 16 (≈ 2.01 to 32.1 µM)	≥ 800	> 800
CCNC(=O)Nc1nc2cc(-c3cnc(N4CCC(C)(C(=O)O)CC4)nc3)cc(/C=N/OCC)c2s1 [Compound 204]	≥ 800	≥ 800	> 800	> 800	0.25 to 1 (≈ 0.489 to 1.95 µM)	0.25 to 1 (≈ 0.489 to 1.95 µM)	1 to 16 (≈ 1.95 to 31.3 µM)		
CCNC(=O)Nc1nc2cc(-c3cnc(N4CCC(C)(C(=O)O)CC4)nc3)cc(-c3ccc(CN4CCOCC4)cn3)c2s1 [Compound 205]		400 (≈ 649 µM)	400 to 800 (≈ 649 to 1300 µM)		0.25 to 1 (≈ 0.405 to 1.62 µM)	0.25 to 1 (≈ 0.405 to 1.62 µM)	1 to 16 (≈ 1.62 to 25.9 µM)	≥ 800	> 800
CCNC(=O)Nc1nc2cc(-c3cnc(N4CCC(CC)(C(=O)O)C4)nc3)cc(-c3ccccn3)c2s1 (centres unmarked) [Compound 206]	≥ 800	≥ 800	> 800	> 800	0.25 to 1 (≈ 0.483 to 1.93 µM)	≤ 0.25	1 to 16 (≈ 1.93 to 30.9 µM)		
CCNC(=O)Nc1nc2cc(-c3cnc(N4CCC(CC)(C(=O)O)CC4)nc3)cc(C(=O)CC)c2s1 [Compound 207, 4-Ethyl-1-(5-(2-(3-ethylureido)-7-propionylbenzo[d]thiazol-5-yl)pyrimidin-2-yl)piperidine-4-carboxylic acid]		100 (≈ 196 µM)	12.5 to 400 (≈ 24.5 to 783 µM)		0.25 to 1 (≈ 0.49 to 1.96 µM)	0.25 to 1 (≈ 0.49 to 1.96 µM)	1 to 16 (≈ 1.96 to 31.3 µM)	400 (≈ 783 µM)	400 to 800 (≈ 783 to 1570 µM)
CCNC(=O)Nc1nc2cc(-c3cnc(N4CCC(C)(C(=O)O)CC4)nc3)c(OC)c(Br)c2s1 [Compound 208, 1-[5-[7-bromo-2-(ethylcarbamoylamino)-6-methoxy-1,3-benzothiazol-5-yl]pyrimidin-2-yl]-4-methyl-piperidine-4-carboxylic acid]		100 (≈ 182 µM)	12.5 to 400 (≈ 22.7 to 728 µM)		0.25 to 1 (≈ 0.455 to 1.82 µM)	1 to 16 (≈ 1.82 to 29.1 µM)	1 to 16 (≈ 1.82 to 29.1 µM)	200 (≈ 364 µM)	12.5 to 400 (≈ 22.7 to 728 µM)
